Common to all, as to format: in vivo
One test has as its system Helicoverpa armigera. The test is described as follows: Pesticidal test against Helicoverpa armigera (cabbage leaf disk dip). The note with it: foliar, 72 h, concentration 1 ppm, 2-stage larvae, examined after 3 days, 25° C., read-out: pesticidal rate. In a few lines: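 Cabbage leaf disks were dipped for 30 s in test solution at a set concentration and air-dried. Second-instar larvae were placed one per hole and held at 25 °C, with live and dead counts taken after 3 days. Five larvae per group were tested in two replicates.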

In another test the test system is Spodoptera litura. The test is described as follows: Pesticidal test against Spodoptera litura (cabbage leaf dip). The note with it: foliar, 144 h, concentration 1 ppm, 2-stage larvae, examined after 6 days, 25° C., read-out: pesticidal rate. In a few lines:
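Cabbage leaf pieces dipped 30 seconds in compound solution at a predetermined concentration and air-dried, then offered to second-stage larvae, five per group in two replicates. Held at 25° C. Living and dead larvae counted after 6 days.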

The next test deals with Ctenocephalides Felis. Briefly: Insecticidal test for Ctenocephalides felis, Test Example 1 (dry film in glass tube, 0.5 ml, Table A4). The conditions noted are these: adults.
The next test has as its system Choristoneura magnanima. Briefly: Pesticidal test against Choristoneura magnanima (artificial feed dip). The note with it: 144 h, concentration 1 ppm, 2-stage larvae, examined after 6 days, 25° C., read-out: pesticidal rate. In a few lines:
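Second-stage larvae, five per group in duplicate, fed artificial diet that had been immersed 30 s in test solution at a predetermined concentration and air-dried. Mortality scored at day 6, 25° C.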

From patent US8686044B2, “Amide derivative, pest control agent containing the amide derivative, and use of the amide derivative” (Mitsui Chemicals Agro, Inc., priority 2008, dated 2014) come the findings set out here.

Some results are limits rather than exact numbers.

For `CN(C(=O)c1ccccc1)c1cccc(C(=O)Nc2c(Br)cc(C(F)(C(F)(F)F)C(F)(F)F)cc2C(F)(F)F)c1F` [7-1574, N-(2-bromo-4-(perfluoropropan-2-yl)-6-(trifluoromethyl)phenyl)-2-fluoro-3-(N-methylbenzamide)benzamide], the pest or weed control at 1 ppm in the test with Helicoverpa armigera, with Spodoptera litura and in the test on Choristoneura magnanima was not below 70% throughout. In addition, in the test with Ctenocephalides Felis, the “effect in the examination after 12 hours of the exposure” value is listed as “effective”.
In the case of `CN(C(=O)c1ccc(F)cc1)c1cccc(C(=O)Nc2c(I)cc(C(F)(C(F)(F)F)C(F)(F)F)cc2C(F)(F)F)c1F` [7-1733, 2-fluoro-3-(4-fluoro-N-methylbenzamide)-N-(2-iodo-4-(perfluoropropan-2-yl)-6-(trifluoromethyl)phenyl)benzamide], the pest or weed control at 1 ppm in the test with Helicoverpa armigera, with Spodoptera litura and in the test with Choristoneura magnanima was not below 70% throughout.
